Source: the NIST ThermoML archive (doi:10.1016/j.jct.2009.11.010)

Experiment: molar heat capacity at saturation pressure
Conditions: Crystal, Vacuum adiabatic calorimetry

c1ccc2nc3ccccc3nc2c1 [phenazine]
Conditions | molar heat capacity [J/K/mol]
6.135 K | 0.71
7.091 K | 1.09
8.146 K | 1.57
9.073 K | 2.09
9.999 K | 2.77
11.1 K | 3.68
12.32 K | 4.78
13.68 K | 6.14
15.19 K | 7.78
16.85 K | 9.645
18.69 K | 11.81
20.75 K | 14.23
23.04 K | 16.99
25.58 K | 20
28.4 K | 23.28
31.54 K | 26.77
35.04 K | 30.43
38.95 K | 34.21
43.3 K | 38.1
48.12 K | 42.05
52.7 K | 45.41
53.49 K | 46.07
57.63 K | 48.91
59.46 K | 50.14
63.45 K | 52.68
69.82 K | 56.56
76.91 K | 60.58
84.71 K | 64.9
93.41 K | 69.64
102.69 K | 74.69
112.24 K | 79.93
121.98 K | 85.34
131.78 K | 90.96
141.72 K | 96.78
148.27 K | 100.69
151.74 K | 102.79
157 K | 106
161.79 K | 108.99
166.83 K | 112.14
176.79 K | 118.44
186.88 K | 124.97
197.06 K | 131.7
207.29 K | 138.54
217.54 K | 145.45
227.79 K | 152.5
238.02 K | 159.59
248.23 K | 166.76
258.43 K | 173.9
268.62 K | 181.08
278.79 K | 188.12
288.98 K | 195.25
292.45 K | 197.59
299.09 K | 202.31
303.14 K | 205.11
315.26 K | 213.62
327.34 K | 221.93
339.58 K | 230.27
341.22 K | 231.31
351.33 K | 238.27
362.68 K | 245.89
375.17 K | 254.22
383.74 K | 259.84
387.73 K | 262.47
394.22 K | 266.7
400.35 K | 270.7
